Laboratory results as given in PMC5773572, “High-throughput analysis using non-depletive SPME: challenges and applications to the determination of free and total concentrations in small sample volumes” (Scientific Reports, 2018).

Tests used:
[1] = test system: 5% calf serum in PBS; test: Protein binding by rapid equilibrium dialysis (RED) in 5% calf serum; format: in vitro ADME; conditions: 8K MWCO
Protocol: Equipments. […] Impact™ protein precipitation plates were purchased from Phenomenex (Torrance, CA, USA). Sample preparation for RED. […] RED protocol. […] Aliquots (400µL) of the spiked treatment medium solutions were added to the donor wells followed by the addition of600µL of blank medium to the acceptor cells. […] The experiment was performed in triplicate for all compounds and concentrations.

[2] = test system: plasma proteins; conditions: value reported in the literature, used to calculate the expected free amount; cited from earlier work
[3] = test system: 5% calf serum in PBS; test: Protein binding by high-throughput SPME fiber method in 5% calf serum in PBS
Protocol: The SPME experimental workflow consisted of five major steps. First, prior to extraction, fibers were conditioned in 100 µL of desorption solution ACN/H2O (80/20, v/v), which was acidified to contain 0.1% (v/v) formic acid. The second step, occurring prior to extraction, involved submersing the fiber in 100 µL of ultrapure water to remove traces of solvent from the extraction phase. This step was performed for 10 seconds using 100 rpm agitation, with water temperature set to 37 °C in order to avoid a temperature gradient between the fiber and the sample, as this could influence the initial uptake of analytes. […] This step was critical, as it ensured that there were no traces of binding components remaining on the coating that could interfere with the quantitation of analytes extracted by the SPME fiber. […]
(§1) The reliability of the new fiber-based SPME high-throughput method was tested by applying it to the determination of the protein binding (PB) percentages of the selected analytes. […] The protein binding of each compound was calculated using the slope ratios of the linear portions of the calibration curves. […]
The developed SPME method was further evaluated using a matrix consisted of 5% CS in PBS to mimic conditions typically used in in vitro cell assay applications. […]

[4] = test system: calf serum (CS); test: Protein binding by ultra-thin coated HLB fiber SPME, slope ratio of calibrations in PBS vs 100% calf serum; conditions: 100% calf serum vs PBS pH 7.4; fiber SPME, 5 min extraction, 37 °C, 100 µL sample
Protocol: (§2) The SPME experimental workflow consisted of five major steps. First, prior to extraction, fibers were conditioned in 100 µL of desorption solution ACN/H2O (80/20, v/v), which was acidified to contain 0.1% (v/v) formic acid. The second step, occurring prior to extraction, involved submersing the fiber in 100 µL of ultrapure water to remove traces of solvent from the extraction phase. This step was performed for 10 seconds using 100 rpm agitation, with water temperature set to 37 °C in order to avoid a temperature gradient between the fiber and the sample, as this could influence the initial uptake of analytes. Following, extraction was performed on 100 µL of sample for 5 min, with samples thermostated to 37 °C, using 100 rpm agitation, prior to extraction. The fourth step consisted of a second rinsing of the fiber with 100 µL of water for 10 seconds to remove matrix components from the fiber. This step was critical, as it ensured that there were no traces of binding components remaining on the coating that could interfere with the quantitation of analytes extracted by the SPME fiber. […]
as §1

[5] = as above; conditions: bovine (calf), 100% calf serum, pH 7.4
Protocol: as §2, §1

In the case of CN1CCCC1c1cccnc1 (racemic) [Nicotine, (±) nicotine], the “binding values in 5% CS (RED)” value [1] is listed as under 10%, the Protein binding [2] is listed as under 10% and the “PB values in 5% CS (SPME)” value [3] is listed as 8%.
With CCN(CC)C(=O)c1cccc(C)c1 [DEET, N,N-Diethyl-meta-toluamide] the “binding values in 5% CS (RED)” value [1] was under 10%, the “PB values in 5% CS (SPME)” value [3] was 38% and the “protein binding (PB)” value [4] was 71%.
With O=C(O)Cc1ccccc1Nc1c(Cl)cccc1Cl [Diclofenac, diclofenac] the “binding values in 5% CS (RED)” value [1] was 91% and the fraction unbound at 5 min [5] was 0.02.
